According to patent publication US9725465B2, “Biaryl acetamide compounds and methods of use thereof” (Ambit Biosciences Corporation, priority 2013, dated 2017):

What was measured:
FLT3 kinase = FLT3 kinase (Homo sapiens (Human), UniProt P36888); experiment: Competition binding assay (Kd), FLT3
KIT kinase = KIT kinase (Homo sapiens (Human), UniProt P10721); experiment: Competition binding assay (Kd), KIT
Protocol: In certain embodiments, competition binding assays were performed as described in Fabian et al., Nature Biotechnology 2005, 23, 329-336.
Competition binding assays used herein were developed, validated and performed as described in Fabian et al., Nature Biotechnology 2005, 23, 329-336. Kinases were produced as fusions to T7 phage (See, Fabian et al. or WO04/015142) or alternatively, the kinases were expressed in HEK-293 cells and subsequently tagged with DNA for PCR detection (See, WO08/005,310). […] The liganded beads were blocked with excess biotin and washed with blocking buffer (SeaBlock (Pierce), 1% BSA, 0.05% Tween 20, 1 mM DTT) to remove unbound ligand and to reduce non-specific binding. […] Test compounds were prepared as 100× stocks in DMSO and diluted into the aqueous environment. Kds were determined using an eleven point threefold serial dilutions. DMSO or control compounds were was added to control assays lacking a test compound. […] The kinase concentration in the eluates was measured by quantitative PCR. […]

Sequence of FLT3 kinase (P36888 27-993): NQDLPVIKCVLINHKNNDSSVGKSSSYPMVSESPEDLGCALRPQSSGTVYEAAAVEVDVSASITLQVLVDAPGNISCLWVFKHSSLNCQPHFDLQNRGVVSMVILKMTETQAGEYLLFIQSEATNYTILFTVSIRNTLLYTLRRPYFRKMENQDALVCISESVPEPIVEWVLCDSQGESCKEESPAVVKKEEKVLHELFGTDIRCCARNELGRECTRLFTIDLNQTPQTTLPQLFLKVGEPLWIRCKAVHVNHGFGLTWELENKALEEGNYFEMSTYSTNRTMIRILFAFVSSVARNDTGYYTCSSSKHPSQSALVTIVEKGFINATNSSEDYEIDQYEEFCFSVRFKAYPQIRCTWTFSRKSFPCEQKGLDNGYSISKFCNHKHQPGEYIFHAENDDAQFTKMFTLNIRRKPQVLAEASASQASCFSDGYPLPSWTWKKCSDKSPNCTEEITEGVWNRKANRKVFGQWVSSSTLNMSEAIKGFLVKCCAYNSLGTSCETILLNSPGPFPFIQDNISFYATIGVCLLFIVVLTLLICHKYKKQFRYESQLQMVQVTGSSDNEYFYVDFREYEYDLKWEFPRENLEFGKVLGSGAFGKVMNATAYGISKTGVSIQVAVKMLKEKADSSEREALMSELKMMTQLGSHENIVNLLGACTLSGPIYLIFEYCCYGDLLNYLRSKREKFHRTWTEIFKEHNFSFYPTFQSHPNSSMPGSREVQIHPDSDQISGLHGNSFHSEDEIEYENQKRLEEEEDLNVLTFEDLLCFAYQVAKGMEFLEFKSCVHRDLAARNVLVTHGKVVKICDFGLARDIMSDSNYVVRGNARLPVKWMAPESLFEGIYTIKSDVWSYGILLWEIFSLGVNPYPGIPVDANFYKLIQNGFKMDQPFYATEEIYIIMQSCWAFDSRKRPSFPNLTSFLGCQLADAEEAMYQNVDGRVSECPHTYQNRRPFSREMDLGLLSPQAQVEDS
Sequence of KIT kinase (P10721 26-976): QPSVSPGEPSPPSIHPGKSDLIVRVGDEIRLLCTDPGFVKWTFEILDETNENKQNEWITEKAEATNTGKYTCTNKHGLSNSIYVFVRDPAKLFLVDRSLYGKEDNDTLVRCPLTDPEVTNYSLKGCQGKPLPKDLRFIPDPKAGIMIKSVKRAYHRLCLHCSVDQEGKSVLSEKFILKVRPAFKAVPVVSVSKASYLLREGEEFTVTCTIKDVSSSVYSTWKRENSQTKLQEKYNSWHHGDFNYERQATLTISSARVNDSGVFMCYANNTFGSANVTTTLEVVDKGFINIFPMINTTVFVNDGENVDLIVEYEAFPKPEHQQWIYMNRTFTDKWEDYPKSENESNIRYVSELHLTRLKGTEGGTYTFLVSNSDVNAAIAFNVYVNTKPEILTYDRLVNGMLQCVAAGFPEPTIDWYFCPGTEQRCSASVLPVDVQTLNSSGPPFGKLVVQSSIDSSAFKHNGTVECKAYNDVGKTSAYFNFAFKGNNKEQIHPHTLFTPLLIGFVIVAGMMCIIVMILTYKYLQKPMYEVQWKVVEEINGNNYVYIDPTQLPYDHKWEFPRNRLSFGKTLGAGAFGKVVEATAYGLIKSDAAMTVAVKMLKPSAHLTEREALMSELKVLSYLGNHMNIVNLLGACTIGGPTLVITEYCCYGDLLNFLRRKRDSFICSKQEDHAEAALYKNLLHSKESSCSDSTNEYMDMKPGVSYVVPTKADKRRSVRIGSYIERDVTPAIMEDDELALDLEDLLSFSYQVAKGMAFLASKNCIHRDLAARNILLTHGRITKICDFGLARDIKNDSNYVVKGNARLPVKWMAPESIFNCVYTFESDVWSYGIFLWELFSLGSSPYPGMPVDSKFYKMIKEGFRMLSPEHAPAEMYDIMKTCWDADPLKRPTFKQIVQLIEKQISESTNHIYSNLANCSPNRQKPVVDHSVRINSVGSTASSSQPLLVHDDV

Kd (FLT3 kinase; competition binding) [nM] | Kd (KIT kinase; competition binding) [nM] | Kd (FLT3 kinase; competition binding assay) [nM] | Kd (KIT kinase; competition binding assay) [nM] | SMILES
< 5 | < 5 | – | – | COc1cc2nc(-c3ccc(CC(=O)Nc4cc(C5(C(F)(F)F)CC5)on4)c(F)c3)cnc2cc1OCCn1cncn1 [Example 185, 2-[2-fluoro-4-[7-methoxy-6-[2-(1,2,4-triazol-1-yl)ethoxy]quinoxalin-2-yl]phenyl]-N-[5-[1-(trifluoro-methyl)cyclopropyl]isoxazol-3-yl]acetamide]
– | – | < 5 | < 5 | COc1cc2nc(-c3ccc(CC(=O)Nc4cc(C5(C(F)(F)F)CC5)on4)c(F)c3)cnc2cc1NCCN1CCOCC1 [Example 85, 2-(2-fluoro-4-(7-methoxy-6-((2-morpholinoethyl)amino)quinoxalin-2-yl)phenyl)-N-(5-(1-(trifluoromethyl)cyclopropyl)isoxazol-3-yl)acetamide]
– | – | < 5 | < 5 | COc1cc2ncc(-c3ccc(CC(=O)Nc4cc(C(C)(C)C(F)(F)F)on4)c(F)c3)cc2cc1OCCN1CC[C@H](O)[C@@H](F)C1 (stereo in doubt) [Example 87, 2-(2-Fluoro-4-{6-[2-(3-fluoro-4-hydroxy-piperidin-1-yl)-ethoxy]-7-methoxy-quinolin-3-yl}-phenyl)-N-[5-(2,2,2-trifluoro-1,1-dimethyl-ethyl)-isoxazol-3-yl]-acetamide]
< 5 | < 5 | – | – | COc1cc2nc(-c3ccc(CC(=O)Nc4cc(C5(C(F)(F)F)CC5)on4)c(F)c3)cnc2cc1OCC(=O)N(C)C [Example 186, 2-[4-[6-[2-(dimethylamino)-2-oxo-ethoxy]-7-methoxy-quinoxalin-2-yl]-2-fluoro-phenyl]-N-[5-[1-(trifluoro-methyl)cyclopropyl]isoxazol-3-yl]acetamide]
< 5 | < 5 | – | – | COc1cc2nc(-c3ccc(CC(=O)Nc4cc(C5(C(F)(F)F)CC5)on4)c(F)c3)cnc2cc1OCCCNC(C)=O [Example 237, 2-[4-[6-(3-acetamidopropoxy)-7-methoxy-quinoxalin-2-yl]-2-fluoro-phenyl]-N-[5-[1-(trifluoromethyl)cyclo-propyl]isoxazol-3-yl]acetamide]
– | – | < 5 | < 5 | COc1cc2nc(-c3ccc(CC(=O)Nc4cc(C5(C(F)(F)F)CC5)on4)c(F)c3)cnc2cc1Br [Example 83, 2-(4-(6-bromo-7-methoxyquinoxalin-2-yl)-2-fluorophenyl)-N-(5-(1-(trifluoromethyl)cyclopropyl)isoxazol-3-yl)acetamide]
– | – | < 5 | < 5 | O=C(Cc1ccc(-c2cnc3ccncc3c2)cc1)Nc1cc(C2(C(F)(F)F)CC2)on1 [Example 12, 2-(4-(1,6-naphthyridin-3-yl)phenyl)-N-(5-(1-(trifluoromethyl)cyclopropyl)isoxazol-3-yl)acetamide]
< 5 | < 5 | – | – | COc1cc2nc(-c3ccc(CC(=O)Nc4cc(C5(C(F)(F)F)CC5)on4)c(F)c3)cnc2cc1OCCCN1CCOCC1 [Example 212, 2-[2-fluoro-4-[7-methoxy-6-(3-morpholino-propoxy)quinoxalin-2-yl]phenyl]-N-[5-[1-(trifluoro-methyl)cyclopropyl]isoxazol-3-yl]acetamide]
– | – | 5 to 20 | > 50 | COc1cc2ncc(-c3ccc(CC(=O)Nc4cc(C5(C(F)(F)F)CC5)nn4C(C)(C)C)c(F)c3)nc2cc1OC [Example 173, N-[2-tert-butyl-5-[1-(trifluoromethyl)cyclo-propyl]pyrazol-3-yl]-2-[4-(6,7-dimethoxy-quinoxalin-2-yl)-2-fluoro-phenyl]acetamide]
< 5 | < 5 | – | – | COc1cc2nc(-c3ccc(CC(=O)Nc4cc(C5(C(F)(F)F)CC5)on4)c(F)c3)cnc2cc1OCC(O)CO (centres unmarked) [Example 238, 2-[4-[6-(2,3-dihydroxypropoxy)-7-methoxy-quinoxalin-2-yl]-2-fluoro-phenyl]-N-[5-[1-(trifluoromethyl)cyclo-propyl]isoxazol-3-yl]acetamide]
< 5 | < 5 | – | – | COc1cc2nc(-c3ccc(CC(=O)Nc4cc(C5(C(F)(F)F)CC5)on4)c(F)c3)cnc2cc1OCCCS(C)(=O)=O [Example 222, 2-[2-fluoro-4-[7-methoxy-6-(3-methylsulfonyl-propoxy)quinoxalin-2-yl]phenyl]-N-[5-[1-(trifluoromethyl)cyclo-propyl]isoxazol-3-yl]acetamide]
– | – | < 5 | < 5 | COc1cc2nc(-c3ccc(CC(=O)Nc4cc(C5(C(F)(F)F)CC5)on4)c(F)c3)cnc2cc1OCCN(C)C(C)=O [Example 176, 2-[4-[6-[2-[acetyl(methyl)amino]ethoxy]-7-methoxy-quinoxalin-2-yl]-2-fluoro-phenyl]-N-[5-[1-(trifluoromethyl)cyclo-propyl]isoxazol-3-yl]acetamide]
< 5 | < 5 | – | – | COc1cc2nc(-c3ccc(CC(=O)Nc4cc(C5(C(F)(F)F)CC5)on4)c(F)c3)cnc2cc1OCCN1CCNCC1 [Example 241, 2-[2-fluoro-4-[7-methoxy-6-(2-piperazin-1-ylethoxy)quinoxalin-2-yl]phenyl]-N-[5-[1-(trifluoromethyl)cyclo-propyl]isoxazol-3-yl]acetamide]
– | – | < 5 | < 5 | COc1cc2nc(-c3ccc(CC(=O)Nc4cc(C5(C(F)(F)F)CC5)on4)c(F)c3)cnc2cc1CC(O)CO (centres unmarked) [Example 84, 2-(4-(6-(2,3-dihydroxypropyl)-7-methoxyquinoxalin-2-yl)-2-fluorophenyl)-N-(5-(1-(trifluoromethyl)cyclopropyl)isoxazol-3-yl)acetamide]
< 5 | < 5 | – | – | COc1cc2nc(-c3ccc(CC(=O)Nc4cc(C5(C(F)(F)F)CC5)on4)cc3)cnc2cc1OCCN1CCOCC1 [Example 231, 2-[4-[7-methoxy-6-(2-morpholinoethoxy)quinoxalin-2-yl]phenyl]-N-[5-[1-(trifluoromethyl)cyclo-propyl]isoxazol-3-yl]acetamide]
< 5 | < 5 | – | – | COc1cc2nc(-c3ccc(CC(=O)Nc4cc(C5(C(F)(F)F)CC5)on4)c(F)c3)cnc2cc1OCCN1CCO[C@@H](C)C1 [Example 248, 2-[2-fluoro-4-[7-methoxy-6-[2-[(2S)-2-methylmorpholin-4-yl]ethoxy]quinoxalin-2-yl]phenyl]-N-[5-[1-(trifluoromethyl)cyclo-propyl]isoxazol-3-yl]acetamide]
< 5 | < 5 | – | – | COc1cc2nc(-c3ccc(CC(=O)Nc4cc(C5(C(F)(F)F)CC5)on4)c(F)c3)cnc2cc1OCCN1CC2CCC(C1)O2 [Example 244, 2-[2-fluoro-4-[7-methoxy-6-[2-(8-oxa-3-azabicyclo[3.2.1]octan-3-yl)ethoxy]quinoxalin-2-yl]phenyl]-N-[5-[1-(trifluoromethyl)cyclo-propyl]isoxazol-3-yl]acetamide]
– | – | < 5 | < 5 | COc1cc2ncc(-c3ccc(CC(=O)Nc4cc(C5(C(F)(F)F)CC5)nn4C)c(F)c3)nc2cc1OC [Example 172, 2-[4-(6,7-dimethoxyquinoxalin-2-yl)-2-fluoro-phenyl]-N-[2-methyl-5-[1-(trifluoro-methyl)cyclopropyl]pyrazol-3-yl]acetamide]
< 5 | < 5 | – | – | COc1cc2ncc(-c3ccc(CC(=O)Nc4cc5n(n4)CCC5(C)C)c(F)c3)nc2cc1OC [Example 194, 2-[4-(6,7-dimethoxyquinoxalin-2-yl)-2-fluoro-phenyl]-N-(4,4-dimethyl-5,6-dihydropyrrolo[1,2-b]pyrazol-2-yl)acetamide]
